# Measurements as given in ChEMBL document CHEMBL1201862, “PubChem BioAssay data set” (2004).
#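 Protocol summary: plate cells (96-well), add compound at 5 concentrations, incubate 48 h, interpolate endpoints linearly. Abbreviation: GI50, concentration required for 50% inhibition of growth.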 Active and inactive are the calls of the source. Rule as the data show it: active = GI50 up to about 1.1 µM and inactive = higher. Starred links: 1 amine or outer side, 2 acyl side, 3 side chain; linkers in the order of their positions; H or OH if unused. Positions of bridges follow the written chain, without caps; N, C: chain ends. Non-standard residues stand in square brackets, D forms with d. Residues, ends and D or L forms follow the SMILES beside them. *: point of attachment. X40 = CC[C@H](C)[C@@H](N[*:1])[C@@H](O)CC(=O)[*:2]; NMeY = CN[C@@H](Cc1ccc(O)cc1)C(=O)O; dNMeL = CN[C@H](CC(C)C)C(=O)O; Hiv = CC(C)[C@H](O)C(=O)O; Pyruvoyl = CC(=O)C(=O)*
# Experiments:
# Experiment in all cases: NCI anticancer screen, dose series, 48 h
# [1] = tested on: MDA-N
# [2] = tested on: NCI/ADR-RES
# [3] = tested on: K562
# [4] = tested on: KM12
# [5] = tested on: SNB-75
# [6] = tested on: HL-60
# [7] = tested on: OVCAR-5
# [8] = tested on: NCI-H460
# [9] = tested on: CCRF-CEM
# [10] = tested on: DU-145
# [11] = tested on: Malme-3M
# [12] = tested on: Hs-578T
# [13] = tested on: SK-MEL-5
# [14] = tested on: RXF 393
# [15] = tested on: HCT-15
# [16] = tested on: NCI-H522
# [17] = tested on: EKVX
# [18] = tested on: SN12C
# [19] = tested on: SF-539
# [20] = tested on: SK-MEL-2
compound,measurement,setting,value
CC[C@H](C)[C@H]1NC(=O)[C@@H](NC(=O)[C@@H](CC(C)C)N(C)C(=O)[C@@H]2CCCN2C(=O)C(C)=O)[C@@H](C)OC(=O)[C@H](Cc2ccc(OC)cc2)N(C)C(=O)[C@@H]2CCCN2C(=O)[C@H](CC(C)C)NC(=O)[C@H](C(C)C)OC(=O)C[C@@H]1O (Pyruvoyl-P[dNMeL]T[X40][Hiv]LP[NMeY](Me); ester 3-C),GI50,[1],4.67 nM (active)
same,GI50,[2],226 nM (active)
same,GI50,[3],3.53 nM (active)
same,GI50,[4],1.48 nM (active)
same,GI50,[5],4.82 nM (active)
same,GI50,[6],50 nM (active)
same,GI50,[7],6.32 nM (active)
same,GI50,[8],4.29 nM (active)
same,GI50,[9],2.24 nM (active)
same,GI50,[10],3.72 nM (active)
same,GI50,[11],5.38 nM (active)
same,GI50,[12],4.76 nM (active)
same,GI50,[13],3.93 nM (active)
same,GI50,[14],3.83 nM (active)
same,GI50,[15],25.2 nM
same,GI50,[16],5.47 nM (active)
same,GI50,[17],3.1 nM (active)
same,GI50,[18],4.3 nM (active)
same,GI50,[19],3.61 nM (active)
same,GI50,[20],4.7 nM (active)
